Values of other authors as cited in publication PMC11047177 (ESMO Open, 2024).
Where two headings read alike, the source gives them in different places.

How the values were obtained:
[1] = cited from earlier work
[2] = cited from earlier work; remark: listed apart in the source
[3] = patients with advanced solid tumors
[4] = advanced solid tumors, non-Hodgkin's lymphoma, or lower-risk myelodysplastic syndrome

Compound | Preliminary evidence of antitumor activity [1] | TRAE Anemia [1, 3] | TRAE Dysgeusia [1, 3] | TRAE Fatigue [1, 3] | TRAE Nausea [1, 3] | TRAE Fatigue [2, 4] | TRAE Nausea [2, 4] | TRAE thrombocytopenia [2, 4] | Preliminary evidence of antitumor activity [2]
CC(=O)N1CCC(Nc2cc(C(=O)NC[C@H](O)CN3CCc4ccccc4C3)ncn2)CC1 [GSK3326595] | patients achieving PRs | 31% | 26% | 39% | 31% | – | – | – | –
Nc1nc2cc(CC[C@H]3C[C@@H](n4ccc5c(N)ncnc54)[C@H](O)[C@@H]3O)ccc2cc1Br [JNJ-64619178] | – | – | – | – | – | 32% | 39% | 52% | patients achieving PRs
